# Laboratory results from patent US11166924B2, “N-methyl-d-aspartate receptor allosteric modulators and methods for their use” (Qingdao Primedicine Pharmaceutical Company, Ltd., priority 2016, dated 2021).
# What was measured:
# AMPAR = assay: AMPA-induced currents in cultured hippocampal neurons; type: cell-based
# Experimental: Whole cell patch-clamp recordings were performed under voltage-clamp mode using an Axopatch 200B or 1D patch-clamp amplifier (Molecular Devices). Whole-cell currents were recorded at a holding potential of −60 mV unless indicated elsewhere, and signals were filtered at 2 kHz, digitized at 10 kHz (Digidata 1322A). Recording pipettes (3-5 MΩ) were filled with the intracellular solution that contained (mM): CsCl 140, HEPES 10, Mg-ATP 4, QX-314 5, pH 7.20; osmolarity, 290-295 mOsm. BAPTA (10 mM) was added in the intracellular solution (otherwise specified). The coverslips were continuously superfused with the extracellular solution containing (mM): NaCl 140, KCl 5.4, HEPES 10, CaCl2 1.3, glucose 20, pH 7.4; osmolarity, 305-315 mOsm. NMDA, GABA or AMPA induced currents were either applied by NMDA, GABA, AMPA either through perfusion fast-step (Warner Instruments). […]
# Next, the inventor evaluated the selectivity profile for Npam02 on two other key ionotropic receptors of the central nervous system (CNS): α-amino-3-hydroxy-5-methyl-4-isoxazolepropionic acid receptor AMPAR, which are known to be a non-NMDA type ionotropic transmembrane receptor for glutamate that mediates fast synaptic transmission in the central nervous system (CNS) and GABA receptors which are the principal inhibitory ligand-gated ion channel receptor. […]
# GluN1 or GluN2A mutants = assay: Patch clamp in HEK293 cells, another 8 mutations within the defined pocket (summary); type: cell-based, rat
# Experimental: Whole cell patch-clamp recordings were performed under voltage-clamp mode using an Axopatch 200B or 1D patch-clamp amplifier (Molecular Devices). Whole-cell currents were recorded at a holding potential of −60 mV unless indicated elsewhere, and signals were filtered at 2 kHz, digitized at 10 kHz (Digidata 1322A). Recording pipettes (3-5 MΩ) were filled with intracellular solution containing (mM): CsCl 140, HEPES 10, Mg-ATP 4, QX-314 5, pH 7.20; osmolarity, 290-295 mOsm. BAPTA (10 mM) was added in the intracellular solution (unless otherwise specified). The coverslips were continuously superfused with extracellular solution containing (mM): NaCl 140, KCl 5.4, HEPES 10, CaCl2 1.3, glucose 20, pH 7.4; osmolarity, 305-315 mOsm. NMDA-induced currents were applied by NMDA through perfusion fast-step (Warner Instruments). With perfusion fast-step system, NMDA application was achieved by using a two-square barrel glass tubing and depending on the age of the cultured neurons, CNQX (10 μM), TTX (0.5 μM) or BIC (10 μM) were added in the extracellular solution to minimize the activation of ionotropic glutamate receptors and voltage-gated sodium channels, respectively. All experiments were performed at room temperature. Recordings from at least six HEK293 cells/neurons were performed for all active compounds. […]
SMILES,Effect on AMPAR mediated currents (AMPAR),Reduction in potentiation (GluN1 or GluN2A mutants)
"COc1cccc(/C=N/NC(=O)c2ccccc2C)c1O [Npam02, (E)-N′-(2-hydroxy-3-methoxybenzylidene)-2-methylbenzohydrazide]",no observable effects,–
"CCOc1cc(Cl)c(Cl)c(/C=N/NC(=O)c2ccccc2Br)c1O [Npam43, (E)-2-bromo-N′-(2,3-dichloro-5-ethoxy-6-hydroxybenzylidene)benzohydrazide]",–,10-62%
